Laboratory results published in patent US20090305244A1, “Selection, Propagation and Use of Mosaic Aneuploid Stem Cells” (The Scripps Research Institute, priority 2005, published 2009).
“Also recorded” adds a separate entry of the source.

How the values were obtained:
Mouse ESC [1] = experiment: Neuronal differentiation of ESCs co-cultured with PA6 cells (tuj1 staining); type: cell-based; conditions: taxol 2.5 nM versus without taxol; PA6 co-culture 1 week; FIG. 4
From the text: (§1) A key attribute of HESCs is their ultimate ability to differentiate into normal, mature cells. There is ample evidence that the differentiation of ES cells can be manipulated to give rise to enriched populations of neuronal cells. Stromal PA6 cells, when used as feeders, promote neural differentiation by inducing mouse ES colonies to become Tuj-1-positive and with robust neuritogenesis (Kawasaki et al., 2000). To examine the differentiation potential of anueploid vs. euploid cells, mammalian ESCs were treated with (aneuploid) or without (euploid) taxol and were examined for their ability to differentiate into neurons when cocultured with PA6 cells. Following 1 week of differentiation, 55% of taxol treated cells had gained chromosomes (FIG. 3).
(§2) Mouse ESC were co-cultured with PA6 cells (Kawasaki et al., 2002) for 1 week under differentiation conditions (DMEM/F12 Glutamax (Gibco, Carlsbad, Calif.), 10% “KNOCKOUT” serum replacement (Gibco), 0.1 mM non-essential aminoacids (Gibco) and 0.1 mM β-mercaptoethanol (Gibco). Cells were treated with taxol (Sigma) at a concentration of 2.5 nM.
Immunofluorescence staining was performed as previously described (Gage et al., 1995), using α-β-tubulin-III (Tuj-1; 1/1000, Covance). Secondary antibodies were purchased from Jackson ImmunoResearch.

Mouse ESC [2] = experiment: Chromosome counts of ESCs treated with taxol during PA6 co-culture differentiation; type: cell-based; conditions: FIG. 3
From the text: as §1, §2
HESC Chromosome spreads were obtained by standard protocols (Barch et al., 1997; Rehen et al., 2001). […]
For each sample, 40 metaphase spreads were captured and analyzed by SKY and 70 metaphase spreads counterstained with DAPI were captured for aneuploidy quantification.

With `CC(=O)O[C@H]1C(=O)[C@@]2(C)[C@H]([C@H](OC(=O)c3ccccc3)[C@]3(O)C[C@H](OC(=O)[C@H](O)[C@@H](NC(=O)c4ccccc4)c4ccccc4)C(C)=C1C3(C)C)[C@]1(OC(C)=O)CO[C@@H]1C[C@@H]2O` [taxol] the “number of neuronally differentiated colonies (tuj1 staining) / neuronal differentiation potential” value (Mouse ESC [1]) was “significantly reduces neuronal differentiation potential; also recorded: significant decrease”, the “induction of aneuploidy (chromosome counts)” value (Mouse ESC [2]; ESCs on PA6 cells treated with taxol for 6 days) was “induces aneuploidy, specifically hyperploidy” and the “taxol treated cells that had gained chromosomes” value (Mouse ESC [2]; taxol 2.5 nM, following 1 week of differentiation on PA6 cells) was 55%.
